Data from patent publication EP4806435A1, “DIHYDROCHROMENE-DERIVATIVE-CONTAINING THERAPEUTIC AGENT FOR CANCER” (Sumitomo Pharma Co., Ltd., priority 2023, dated 2025).

System: patients with recurrent malignant glioma classified as WHO grade III or IV
Test: Phase 1 dose-escalation clinical trial: safety (TEAEs, DLTs, MTD);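 also: dosing continued until unacceptable toxicity, consent withdrawal, loss to follow-up or investigator/sponsor decision, with cohorts of 1-6 patients per dose level and MTD estimated by BLRM from cumulative DLT data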
[1] = 480 mg daily (240 mg BID) (N=6), cutoff April 21, 2024
[2] = 480 mg daily [240 mg BID] group, cutoff April 21, 2024
[3] = N=23 (n=2), cutoff April 21, 2023
[4] = N=39 (n=2), cutoff April 21, 2024
[5] = N=39 (n=3), cutoff April 21, 2024
[6] = Total (N=23), cutoff April 21, 2023
[7] = Total (N=39), cutoff April 21, 2024

Procedure: Administration to each subject was continued until unacceptable toxicity occurred, consent was withdrawn, the subject was lost to follow-up, or discontinuation was determined by the investigator and/or the sponsor.
The present study consists of two parts: a dose-escalation part (Part 1) and a dose-expansion part (Part 2).
Each dose level was evaluated in cohorts of 1-6 patients. In all cohorts, administration of the investigational drug to the second and subsequent patients was permitted after completion of all safety assessments on Day 8 of Cycle 1 in the first patient. […] At dose level 2 in the dose-escalation part, at least three patients were required to be evaluated before escalation to a higher dose level. After completion of each cohort, the probability of observing a DLT at each dose level in the present study was updated using the BLRM based on cumulative data from the preceding cohorts, and the MTD was estimated.

CC1(C)Oc2cc(Cl)ccc2[C@@H]2OCC3(CCN(CCn4ccnc4)CC3)C[C@H]21 [Compound 1, (4'aR,10'bR)-8'-chloro-1-[2-(1H-imidazol-1-yl)ethyl]-5',5'-dimethyl-4'a,10'b-dihydro-2'H,4'H,5'H-spiro[piperidine-4,3'-pyrano[3,2-c][1]benzopyran] diphosphate]
TEAE: alopecia [1]: 1 (16.7) n (%) | TEAE: constipation [1]: 1 (16.7) n (%) | TEAE: decreased appetite [1]: 1 (16.7) n (%) | TEAE: decreased lymphocyte count [1]: 1 (16.7) n (%) | TEAE: decreased neutrophil count [1]: 0 n (%) | TEAE: decreased platelet count [1]: 0 n (%) | TEAE: diarrhea [1]: 0 n (%) | TEAE: dry skin [1]: 3 (50.0) n (%) | TEAE: fall [1]: 3 (50.0) n (%) | TEAE: fatigue [1]: 2 (33.3) n (%) | TEAE: headache [1]: 0 n (%) | TEAE: hypertrigly-ceridaemia [1]: 0 n (%) | TEAE: hyponatremia [1]: 1 (16.7) n (%) | TEAE: increase in blood cholesterol [1]: 1 (16.7) n (%) | TEAE: increased alanine aminotransferase [1]: 5 (83.3) n (%) | TEAE: increased aspartate aminotransferase [1]: 2 (33.3) n (%) | TEAE: maculopapular rash [1]: 3 (50.0) n (%) | TEAE: nausea [1]: 2 (33.3) n (%) | TEAE: seizure [1]: 1 (16.7) n (%) | TEAE: vomiting [1]: 3 (50.0) n (%) | patients with DLTs (Grade 3 maculopapular rash; Grade 2 nausea and vomiting) (480 mg daily (240 mg BID), cutoff April 21, 2024): two | serious TEAE: confusional state [2]: one | serious TEAE: fatigue [2]: one | patients with serious TEAEs (N=23 (6 patients), cutoff April 21, 2023): 26.1% | patients with Grade ≥3 TEAEs (N=23 (13 patients), cutoff April 21, 2023): 56.5% | patients with TEAEs considered to be related to the study drug (N=23 (16 patients), cutoff April 21, 2023): 69.6% | Grade ≥3 TEAE: aphasia [3]: 8.7% | Grade ≥3 TEAE: decreased lymphocyte count [3]: 8.7% | Grade ≥3 TEAE: decreased white blood cell count [3]: 8.7% | Grade ≥3 TEAE: headache [3]: 8.7% | Grade ≥3 TEAE: decreased neutrophil count (N=23 (n=3), cutoff April 21, 2023): 13.0% | Grade ≥3 TEAE: seizure (N=23 (n=4), cutoff April 21, 2023): 17.4% | patients who died during the study due to TEAEs (assessed as not related) (N=23, 40 mg and 240 mg groups, cutoff April 21, 2023): two | Grade ≥3 TEAE considered related to Compound 1 (dry skin) (N=23, cutoff April 21, 2023): one | relatedness of serious TEAEs to Compound 1 (N=23, cutoff April 21, 2023): None of these serious TEAEs were considered to be related to Compound 1 | patients with serious TEAEs (N=39 (9 patients), cutoff April 21, 2024): 23.1% | patients with Grade ≥3 TEAEs (N=39 (23 patients), cutoff April 21, 2024): 59.0% | patients with TEAEs considered to be related to the study drug (N=39 (30 patients), cutoff April 21, 2024): 76.9% | Grade ≥3 TEAE considered related to Compound 1: fatigue (N=39 (n=1), cutoff April 21, 2024): 2.6% | Grade ≥3 TEAE considered related to Compound 1: dry skin [4]: 5.1% | Grade ≥3 TEAE considered related to Compound 1: maculopapular rash [4]: 5.1% | Grade ≥3 TEAE: decreased white blood cell count [4]: 5.1% | Grade ≥3 TEAE: dry skin [4]: 5.1% | Grade ≥3 TEAE: increased alanine aminotransferase [4]: 5.1% | Grade ≥3 TEAE: maculopapular rash [4]: 5.1% | Grade ≥3 TEAE: aphasia [5]: 7.7% | Grade ≥3 TEAE: decreased lymphocyte count [5]: 7.7% | Grade ≥3 TEAE: decreased neutrophil count [5]: 7.7% | Grade ≥3 TEAE: headache [5]: 7.7% | Grade ≥3 TEAE: fatigue (N=39 (n=4), cutoff April 21, 2024): 10.3% | Grade ≥3 TEAE: seizure (N=39 (n=5), cutoff April 21, 2024): 12.8% | patients who died during the study due to TEAEs (N=39, 40 mg QD and 240 mg QD groups, cutoff April 21, 2024): Two | serious TEAEs considered to be related to Compound 1 (N=39, cutoff April 21, 2024): nine and None of these serious TEAEs were considered to be related to Compound 1 | Number of patients with any TEAE [6]: 23 (100) n (%) | TEAE: constipation [6]: 7 (30.4) n (%) | TEAE: decreased appetite [6]: 3 (13.0) n (%) | TEAE: decreased lymphocyte count [6]: 5 (21.7) n (%) | TEAE: decreased neutrophil count [6]: 6 (26.1) n (%) | TEAE: decreased platelet count [6]: 4 (17.4) n (%) | TEAE: decreased white blood cell count [6]: 3 (13.0) n (%) | TEAE: dry skin [6]: 5 (21.7) n (%) | TEAE: fall [6]: 3 (13.0) n (%) | TEAE: headache [6]: 7 (30.4) n (%) | TEAE: hypertrigly-ceridaemia [6]: 4 (17.4) n (%) | TEAE: hyponatremia [6]: 3 (13.0) n (%) | TEAE: increased alanine aminotransferase [6]: 12 (52.2) n (%) | TEAE: increased aspartate aminotransferase [6]: 6 (26.1) n (%) | TEAE: nausea [6]: 11 (47.8) n (%) | TEAE: seizure [6]: 5 (21.7) n (%) | TEAE: vomiting [6]: 6 (26.1) n (%) | Number of Patients with Any TEAE [7]: 39 (100) n (%) | TEAE: Confusional state [7]: 4 (10.3) n (%) | TEAE: Gait disturbance [7]: 4 (10.3) n (%) | TEAE: Gastrointestinal disorder [7]: 4 (10.3) n (%) | TEAE: Hiccups [7]: 4 (10.3) n (%) | TEAE: Tremor [7]: 4 (10.3) n (%) | TEAE: alopecia [7]: 6 (15.4) n (%) | TEAE: constipation [7]: 11 (28.2) n (%) | TEAE: decreased appetite [7]: 6 (15.4) n (%) | TEAE: decreased lymphocyte count [7]: 6 (15.4) n (%) | TEAE: decreased neutrophil count [7]: 6 (15.4) n (%) | TEAE: decreased platelet count [7]: 5 (12.8) n (%) | TEAE: diarrhea [7]: 5 (12.8) n (%) | TEAE: dry skin [7]: 10 (25.6) n (%) | TEAE: fall [7]: 9 (23.1) n (%) | TEAE: fatigue [7]: 7 (17.9) n (%) | TEAE: headache [7]: 9 (23.1) n (%) | TEAE: hypertrigly-ceridaemia [7]: 5 (12.8) n (%) | TEAE: hyponatremia [7]: 5 (12.8) n (%) | TEAE: increase in blood cholesterol [7]: 4 (10.3) n (%) | TEAE: increased alanine aminotransferase [7]: 25 (64.1) n (%) | TEAE: increased aspartate aminotransferase [7]: 13 (33.3) n (%) | TEAE: maculopapular rash [7]: 4 (10.3) n (%) | TEAE: nausea [7]: 21 (53.8) n (%) | TEAE: seizure [7]: 7 (17.9) n (%) | TEAE: vomiting [7]: 14 (35.9) n (%) | study drug related Grade 3 AEs (dry skin, and rash) (as of September 2023, n=33): 2 | study drug-related SAEs (as of September 2023, n=33): no study drug-related SAEs reported | dose-limiting toxicities (DLTs) (from 20 mg QD to 240 mg QD, cutoff April 21, 2024): No dose-limiting toxicities (DLTs) were observed | dose limiting toxicity (from 20 mg up to 240 mg, as of September 2023): No dose limiting toxicity reported | serious TEAE: seizure (one 20 mg QD, one 120 mg QD, two 180 mg QD, cutoff April 21, 2024): four
